According to patent US20170202808A1, “PHARMACEUTICAL DOSAGE FORMS” (Novartis AG, priority 2014, published 2017):

Assays:
[1] = drug substance without excipients
[2] = drug substance without MCC
[3] = especially in its phosphate salt form
[4] = especially in its phosphate salt form; remark: listed apart in the source

flowability, ffc (poorly flowable) [1]: 1.1
primary particle size [2]: ca. 4 micron
drug substance bulk density [3]: 0.1 to 0.3 g/mL
hygroscopicity [4]: hygroscopic
SMILES: N#Cc1ccc([C@H]2CCc3cncn32)c(F)c1 [compound of formula (1), 4-[(5R)-6,7-dihydro-5H-pyrrolo[1,2-c]imidazol-5-yl]-3-fluorobenzonitrile]
